Results reported in patent US10463651B2, “3-(1H-pyrrolo[3,2-C]pyridin-2-YL)-1H-indazoles and therapeutic uses thereof” (Samumed, LLC, priority 2015, dated 2019).

Key:
Assay type in all cases: cell-based
[1] = system: Wnt activity (Sp5-Luc reporter, SW480 colon carcinoma cells); assay: Screening assay for Wnt activity (Sp5-Luc reporter gene assay in SW480 cells); settings: Homo sapiens; for EC50: Sp5-Luc reporter, SW480 cells, incubated overnight; for inhibition at 10 µM: SW480, read-out: percent inhibition at 10 μM
Text: The screening assay for Wnt activity is described as follows. Reporter cell lines can be generated by stably transducing cancer cell lines (e.g., colon cancer) or primary cells (e.g., IEC-6 intestinal cells) with a lentiviral construct that includes a Wnt-responsive promoter driving expression of the firefly luciferase gene.
SW480 colon carcinoma cells were transduced with a lentiviral vector expressing luciferase with a human Sp5 promoter consisting of a sequence of eight TCF/LEF binding sites. SW480 cells stably expressing the Sp5-Luc reporter gene and a hygromycin resistance gene were selected by treatment with 150 μg/mL of hygromycin for 7 days. These stably transduced SW480 cells were expanded in cell culture and used for all further screening activities. […] For Sp5-Luc reporter gene assays, the cells were plated at 4,000 cells/well in 384-well plates with medium containing 1% fetal bovine serum and incubated overnight at 37° C. and 5% CO2. Following incubation, 20 μl of BrightGlo luminescence reagent (Promega) was added to each well of the 384-well assay plates. The plates were placed on an orbital shaker for 2 min and then luminescence was quantified using the Envision (Perkin Elmer) plate reader. Readings were normalized to DMSO only treated cells, and normalized activities were utilized for EC50 calculations using the dose-response log (inhibitor) vs. response-variable slope (four parameters) nonlinear regression feature available in GraphPad Prism 5.0 (or Dotmatics).

SW480 colon cancer cells = assay: Cell viability assay (CellTiter-Blue); settings: Homo sapiens; for EC50: 96 h, SW480 cell viability, four days, CellTiter-Blue; for inhibition at 10 µM: SW480, 96 h, read-out: percent inhibition at 10 μM
Description: Representative compounds were screened using the following assay procedure to assess the effect on cell viability as described below.
Approximately 2×10^3 SW480 colon cancer cells were seeded into each well and allowed to incubate in the presence or absence of compound for four days at 37° C./5% CO2. Eight replicates of DMSO-treated cells served as controls and cells treated with compound were performed in duplicate.
After incubation, 20 μL of CellTiter-Blue (Promega) was added to each well allowed to incubate for approximately 3 hours. This reagent was a buffered solution which contains resazurin, metabolically active cells were able to reduce rezarurin (blue) into resorufin (pink) which was highly fluorescent. This measured fluorescence was used as a readout for cell viability.

[2] = system: primary human fibroblasts derived from IPF patients (LL29 cells) treated with TGF-β1; assay: Inhibition of the fibrotic process (αSMA staining) in TGF-β1-treated fibroblasts; settings: Fibroblast, 96 h; for EC50: % αSMA-positive LL29 cells, TGF-β1 20 ng/mL, 4 days
Description: Representative compounds were screened using primary human fibroblasts (derived from IPF patients) treated with TGF-β1 to determine their ability to inhibit the fibrotic process.
LL29 cells are plated at 1,500 cells/well in 80 μL/well F12 medium supplemented with 1% Fetal Bovine Serum. […] Wells treated with TGF-P1 and containing DMSO were used as controls. […] Following incubation for 4 days, SYTOX green nucleic acid stain (Life Technologies [Thermo Fisher Scientific]) was added to the wells at a final concentration of 1 μM and incubated at room temperature for 30 min.

[3] = system: primary human mesenchymal stem cells (hMSCs); assay: Induction of chondrogenesis in hMSCs (Rhodamine B / Nile Red nodule imaging); settings: for Emax: maximum activity relative to TGF-β3 (10 ng/mL) positive control, read-out: Max. Activity as % TGF-β3 activity; for EC50: concentration required to induce 50% levels of chondrogenesis vs TGF-β3 positive control, read-out: Conc (nM) of 50% TGF-β3 activity
Text: Representative compounds were screened using primary human mesenchymal stem cells (hMSCs) to determine their ability to induce chondrogenesis (process by which cartilage is developed).
Primary human mesenchymal stem cells (hMSCs) were purchased from Lonza (Walkersville, Md.) and expanded in Mesenchymal Stem Cell Growth Media (Lonza). Cells between passage 3 and 6 were used for the experiments.
Area of nodules in each well was normalized to the average of 3 DMSO treated wells on the same plate using Excel (Microsoft Inc.). The normalized averages (fold change over DMSO) of 2 or 3 replicate wells for each compound concentration were calculated. Due to solubility limitations of some of the compounds, curve fitting was incomplete leading to inaccurate EC50 determinations.
Using TGF-β3 as a positive control, the concentration of representative compounds required to induce 50% levels of chondrogenesis is reported. In addition, the maximum activity of each compound and the respective dose that each compound reached maximum chondrogenesis activity is reported.

IL-6 (THP-1 cells) = assay: IL-6 inhibition in LPS-stimulated THP-1 cells (HTRF); settings: Homo sapiens; for EC50: IL6 by HTRF, THP-1 cells, 500 ng/mL LPS, 22 hours; for inhibition at 10 µM: THP-1, read-out: percent inhibition at 10 M
Description: THP-1 cells were cultured in basal media with 1% FBS for 24 hours before the start of the assay. […] THP-1 cells were plated at 5000 cells/well in the 384-well plates and incubated at 37° C. for 2 h. 500 ng/mL of LPS was added after 2 hours and cells were incubated for another 22 hours at 37° C. Plates were spun in a centrifuge for 1 minute at […] and a mixture of anti-IL6 XL665, and anti-IL6 Cryptate diluted in reconstitution buffer (Cisbio Inc.) was added to each well. Following incubation for 3 hrs at room temperature, Homogeneous Time-Resolved Fluorescence (HTRF) was measured using the Envision (Perkin Elmer) at 665 nm and […]. The ratio of fluorescence at 665 nm to 620 nm was used as a readout for IL6 quantification. All samples were processed in duplicate. Readings were normalized to DMSO treated cells and normalized activities were utilized for EC50 calculations using the dose-response log (inhibitor) vs. response-variable slope (four parameters) nonlinear regression feature available in GraphPad Prism 5.0 (or Dotmatics).

Row | Compound | EC50 [1] | EC50 (SW480 colon cancer cells) | EC50 [2] | Emax [3] | EC50 (IL-6 (THP-1 cells)) | inhibition at 10 µM [1] | inhibition at 10 µM (SW480 colon cancer cells) | EC50 [3] | inhibition at 10 µM (IL-6 (THP-1 cells)) | inhibition at 10 µM ([2]; read-out: percent inhibition at 10 μM)
1 | Cc1ccncc1-c1ccc2[nH]nc(-c3cc4c(N5CCN(C)CC5)nccc4[nH]3)c2c1 [Compound 229, 3-(4-(4-Methylpiperazin-1-yl)-1H-pyrrolo[3,2-c]pyridin-2-yl)-5-(4-methylpyridin-3-yl)-1H-indazole] | 3500 nM | 3680 nM | 2980 nM | 36% | 1090 nM |  |  |  |  | 
2 | Fc1cccc(-c2nccc3[nH]c(-c4n[nH]c5ccc(-c6cccnc6)cc45)cc23)c1 [Compound 4, 3-(4-(3-Fluorophenyl)-1H-pyrrolo[3,2-c]pyridin-2-yl)-5-(pyridin-3-yl)-1H-indazole] | 140 nM | 453 nM | 44 nM | 32% | 164 nM |  |  |  |  | 
3 | CC(C)CC(=O)Nc1cncc(-c2ccc3[nH]nc(-c4cc5c(-c6ccncc6)nccc5[nH]4)c3c2)c1 [Compound 114, 3-Methyl-N-(5-(3-(4-(pyridin-4-yl)-1H-pyrrolo[3,2-c]pyridin-2-yl)-1H-indazol-5-yl)pyridin-3-yl)butanamide] | > 10000 nM | > 10000 nM | 2220 nM | 95% | 1020 nM | 39.7% | 4.1% | 30 nM |  | 
4 | CC(C)C(=O)Nc1cncc(-c2ccc3[nH]nc(-c4cc5cnccc5[nH]4)c3c2)c1 [Compound 261, N-(5-(3-(1H-Pyrrolo[3,2-c]pyridin-2-yl)-1H-indazol-5-yl)pyridin-3-yl)isobutyramide] | 140 nM | 333 nM | 362 nM | 181% | 343 nM |  |  | 2700 nM |  | 
5 | c1cc2[nH]c(-c3n[nH]c4ccc(-c5cncc(OCCN6CCCC6)c5)cc34)cc2cn1 [Compound 658, 5-(5-(2-(Pyrrolidin-1-yl)ethoxy)pyridin-3-yl)-3-(1H-pyrrolo[3,2-c]pyridin-2-yl)-1H-indazole] | 1860 nM | 552 nM | 338 nM | 198% | 1160 nM |  |  | 30 nM |  | 
6 | c1cc2[nH]c(-c3n[nH]c4ccc(-c5cncc(CN6CCCCC6)c5)cc34)cc2c(-c2ccoc2)n1 [Compound 323, 3-(4-(Furan-3-yl)-1H-pyrrolo[3,2-c]pyridin-2-yl)-5-(5-(piperidin-1-ylmethyl)pyridin-3-yl)-1H-indazole] | 890 nM | 3420 nM | 1150 nM | 177% | > 10000 nM |  |  | 10 nM | 16.6% | 
7 | CCNCc1cncc(-c2ccc3[nH]nc(-c4cc5cnccc5[nH]4)c3c2)c1 [Compound 258, N-((5-(3-(1H-Pyrrolo[3,2-c]pyridin-2-yl)-1H-indazol-5-yl)pyridin-3-yl)methyl)ethanamine] | 1040 nM | 844 nM | 1260 nM | 317% | 451 nM |  |  | 10 nM |  | 
8 | Cc1ncc(-c2ccc3[nH]nc(-c4cc5c(-c6ccncc6)nccc5[nH]4)c3c2)n1C [Compound 573, 5-(1,2-Dimethyl-1H-imidazol-5-yl)-3-(4-(pyridin-4-yl)-1H-pyrrolo[3,2-c]pyridin-2-yl)-1H-indazole] | 1240 nM | 4020 nM | 9980 nM | 36% | > 10000 nM |  |  |  | 38.8% | 
9 | O=C(Nc1cncc(-c2ccc3[nH]nc(-c4cc5c(N6CCCCC6)nccc5[nH]4)c3c2)c1)C1CC1 [Compound 188, N-(5-(3-(4-(Piperidin-1-yl)-1H-pyrrolo[3,2-c]pyridin-2-yl)-1H-indazol-5-yl)pyridin-3-yl)cyclopropanecarboxamide] | 1800 nM | 972 nM | 9010 nM | 146% | 381 nM |  |  | 900 nM |  | 
10 | CS(=O)(=O)NCc1cc(F)cc(-c2nccc3[nH]c(-c4n[nH]c5ccc(-c6cncnc6)cc45)cc23)c1 [Compound 503, N-(3-Fluoro-5-(2-(5-(pyrimidin-5-yl)-1H-indazol-3-yl)-1H-pyrrolo[3,2-c]pyridin-4-yl)benzyl)methanesulfonamide] | 3080 nM | > 10000 nM | > 10000 nM | 40% | 35 nM |  | 32.7% |  |  | 15.5%
11 | CN1CCN(c2nccc3[nH]c(-c4n[nH]c5ccc(-c6cncc(CN7CCCCC7)c6)cc45)cc23)CC1 [Compound 239, 3-(4-(4-Methylpiperazin-1-yl)-1H-pyrrolo[3,2-c]pyridin-2-yl)-5-(5-(piperidin-1-ylmethyl)pyridin-3-yl)-1H-indazole] | > 10000 nM | 3700 nM | 5120 nM | 55% | 8420 nM | 51% |  | 900 nM |  | 
12 | CN(C)Cc1cncc(-c2ccc3[nH]nc(-c4cc5c(-c6cccc(F)c6)nccc5[nH]4)c3c2)c1 [Compound 13, 1-(5-(3-(4-(3-Fluorophenyl)-1H-pyrrolo[3,2-c]pyridin-2-yl)-1H-indazol-5-yl)pyridin-3-yl)-N,N-dimethylmethanamine] | 2940 nM | 776 nM | 2760 nM | 42% | 383 nM |  |  |  |  | 
13 | CCCC(=O)Nc1cncc(-c2ccc3[nH]nc(-c4cc5c(-c6cccc(F)c6)nccc5[nH]4)c3c2)c1 [Compound 17, N-(5-(3-(4-(3-Fluorophenyl)-1H-pyrrolo[3,2-c]pyridin-2-yl)-1H-indazol-5-yl)pyridin-3-yl)butyramide] | 50 nM | 93 nM | 19 nM | 106% | 34 nM |  |  | 2700 nM |  | 
14 | COc1cncc(-c2ccc3[nH]nc(-c4cc5c(-c6ccco6)nccc5[nH]4)c3c2)c1 [Compound 991, 3-(4-(Furan-2-yl)-1H-pyrrolo[3,2-c]pyridin-2-yl)-5-(5-methoxypyridin-3-yl)-1H-indazole] | 1010 nM | 1500 nM |  | 36% | 7620 nM |  |  |  |  | 
15 | CC(C)Nc1cncc(-c2ccc3[nH]nc(-c4cc5c(-c6ccc(F)cc6)nccc5[nH]4)c3c2)c1 [Compound 40, 5-(3-(4-(4-Fluorophenyl)-1H-pyrrolo[3,2-c]pyridin-2-yl)-1H-indazol-5-yl)-N-isopropylpyridin-3-amine] | 539 nM | 779 nM | 549 nM |  | 545 nM |  |  |  |  | 
